Data: patent US20200045967A1, “NOVEL TRIAZOLE DERIVATIVES” (Bayer CropScience Aktiengesellschaft, priority 2017, published 2020)

Tests used:
[1] = Log P by HPLC on reversed phase columns (EEC directive 79/831 Annex V.A8); format: physicochemical; conditions: method [a]: LC-UV, acidic range, 0.1% formic acid in water and acetonitrile
Protocol: If more than one Log P value is available within the same method, all the values are given and separated by “+”. Calibration was done with straight-chain alkan2-ones (with 3 to 16 carbon atoms) with known Log P values (measurement of Log P values using retention times with linear interpolation between successive alkanones). Lambda-max-values were determined using UV-spectra from 200 nm to 400 nm and the peak values of the chromatographic signals.

Septoria tritici [2] = assay: Example G6: in vivo curative Septoria tritici test (wheat); conditions: sprayed 48 hours after the incubation, rate of application 500 ppm, evaluated 21 days after inoculation
[3] = system: Colletotrichum lindemuthianum; assay: Example G3: in vitro test for the calculation of the ED50-value with microorganisms, Colletotrichum lindemuthianum; format: cell-based; conditions: liquid culture, spore suspension, 4 to 7 days incubation, spectrometric measurement of mycelium growth
Septoria tritici [4] = assay: Example G5: in vivo preventive Septoria tritici test (wheat); conditions: rate of application 500 ppm, evaluated 21 days after inoculation
Protocol: Solvent: 49 parts by weight of N,N-dimethylacetamide Emulsifier: 1 part by weight of alkylaryl polyglycol ether To produce a suitable preparation of active compound, 1 part by weight of active compound is mixed with the stated amounts of solvent and emulsifier, and the concentrate is diluted with water to the desired concentration. To test for preventive activity, young plants are sprayed with the preparation of active compound or active compound combination at the stated rate of application. After the spray coating has been dried, the plants are sprayed with a spore suspension of Septoria tritici.

Botrytis cinerea = assay: Example G1: in vivo preventive test on Botrytis cinerea (grey mould), comparison; conditions: rate of application 500 ppm; gherkin; evaluated 4 to 5 days after inoculation
Protocol: (§1) Young plants of gherkin were treated by spraying the active ingredient prepared as described above. Control plants were treated only with an aqueous solution of acetone/dimethyl sulfoxide/Tween®. After 24 hours, the plants were contaminated by spraying the leaves with an aqueous suspension of Botrytis cinerea spores.

Sphaerotheca fuliginea = assay: Example G4: in vivo preventive Sphaerotheca test (cucumbers); conditions: evaluated 7 days after inoculation
Protocol: Solvent: 24.5 parts by weight of acetone • 24.5 parts by weight of dimethylacetamide Emulsifier: 1 part by weight of alkylaryl polyglycol ether To produce a suitable preparation of active compound, 1 part by weight of active compound is mixed with the stated amounts of solvent and emulsifier, and the concentrate is diluted with water to the desired concentration. To test for preventive activity, young plants are sprayed with the preparation of active compound at the stated rate of application. After the spray coating has dried on, the plants are inoculated with an aqueous spore suspension of Sphaerotheca fuliginea.

Fusarium culmorum = assay: Example G3: in vitro test for the calculation of the ED50-value with microorganisms, Fusarium culmorum; format: cell-based; conditions: liquid culture, spore suspension, 4 to 7 days incubation, spectrometric measurement of mycelium growth
Protocol: • Solvent: DMSO • Culture medium: 14.6 g anhydrous D-glucose (VWR), 7.1 g mycological peptone (Oxoid), 1.4 g granulated yeast extract (Merck), supplemented with water to a total volume of 1 liter • Inoculum: spore suspension
Fungicides were solubilized in DMSO and the solution used to prepare the required range of concentrations. The final concentration of DMSO used in the assay was <1% by weight.
A spore suspension was prepared and diluted to the desired spore density.
Fungicides were evaluated for their ability to inhibit spore germination and mycelium growth in liquid culture assay. The compounds were added in the desired concentration to the culture medium with spores. After 4 to 7 days incubation, fungi-toxicity of compounds was determined by spectrometric measurement of mycelium growth. Inhibition of fungal growth was determined by comparing the absorbance values in wells containing the fungicides with the absorbance in control wells without fungicides.

Pyricularia oryzae = format: cell-based; conditions: liquid culture, spore suspension, 4 to 7 days incubation, spectrometric measurement of mycelium growth
Septoria tritici [5] = assay: Example G7: in vivo 5 days preventive Septoria tritici test (wheat); conditions: inoculated 5 days after spraying, rate of application 500 ppm, evaluated 21 days after inoculation
Protocol: Solvent: 49 parts by weight of N,N-dimethylacetamide Emulsifier: 1 part by weight of alkylaryl polyglycol ether To produce a suitable preparation of active compound, 1 part by weight of active compound is mixed with the stated amounts of solvent and emulsifier, and the concentrate is diluted with water to the desired concentration. To test for preventive and long-lasting activity, young plants are sprayed with a preparation of active compound or active compound combination at the stated rate of application.

Puccinia recondita = assay: Example G2: in vivo preventive test on Puccinia recondita (brown rust on wheat), comparison; conditions: evaluated 11 days after inoculation
Protocol: as §1, with “wheat” for “gherkin”, “Puccinia recondita” for “Botrytis cinerea”

SMILES: CC(=O)c1ccc(Oc2ccc(C3OCCO3)cc2)nc1C(F)(F)F [Compound V-01, 1-[6-[4-(1,3-dioxolan-2-yl)phenoxy]-2-(trifluoromethyl)-3-pyridyl]ethanone]
- chromatographic logP ([1]; compounds of formula (V)): 2.98

SMILES: CSc1ccc(Oc2ccc(C(C)(O)Cn3cncn3)c(C(F)(F)F)c2)cc1 (stereo not shown) [Comparative compound, reference compound]
- Efficacy in % (Septoria tritici [2]): 57%
- Colletotrichum lindemuthianum ED50 value in ppm [3]: 0.83 ppm
- Efficacy in % (Septoria tritici [4]): 22%
- Efficacy in % (Botrytis cinerea): 69%
- Efficacy in % (Sphaerotheca fuliginea; rate of application 10 ppm): 28%
- Efficacy in % (Sphaerotheca fuliginea; rate of application 100 ppm): 100%
- Fusarium culmorum ED50 value in ppm (Fusarium culmorum): 2.6 ppm
- Pyricularia oryzae ED50 value in ppm (Pyricularia oryzae): 5.6 ppm
- Efficacy in % (Septoria tritici [5]): 29%
- Efficacy in % (Puccinia recondita; rate of application 100 ppm): 25%
- Efficacy in % (Puccinia recondita; rate of application 500 ppm): 88%

SMILES: O=Cc1ccc(Oc2ccc(C(O)Cn3cncn3)c(C(F)(F)F)n2)cc1 (stereo not shown) [Compound I-01, 4-[[5-[1-hydroxy-2-(1,2,4-triazol-1-yl)ethyl]-6-(trifluoromethyl)-2-pyridyl]oxy]benzaldehyde]
- chromatographic logP ([1]; compounds of formula (I)): 1.91

SMILES: ON=Cc1ccc(Oc2ccc(C(O)Cn3cncn3)c(C(F)(F)F)n2)cc1 (stereo not shown) [Compound I-04, 4-[[5-[1-hydroxy-2-(1,2,4-triazol-1-yl)ethyl]-6-(trifluoromethyl)-2-pyridyl]oxy]benzaldehyde Oxime]
- chromatographic logP ([1]; compounds of formula (I)): 2.26

SMILES: CSc1ccc(Oc2ccc(C(=O)Cn3cncn3)c(C(F)(F)F)n2)cc1 [VII-02, 1-[6-(4-methylsulfanylphenoxy)-2-(trifluoromethyl)-3-pyridyl]-2-(1,2,4-triazol-1-yl)ethanone]
- chromatographic logP ([1]; compounds of formula (VII)): 2.92

SMILES: CSc1ccc(Oc2ccc(C(O)Cn3cncn3)c(C(F)(F)F)n2)cc1 (stereo not shown) [Compound I-02, 1-[6-(4-methylsulfanylphenoxy)-2-(trifluoromethyl)-3-pyridyl]-2-(1,2,4-triazol-1-yl)ethanol]
- chromatographic logP ([1]; compounds of formula (I)): 2.59

SMILES: CSc1ccc(Oc2ccc(C(C)(O)Cn3cncn3)c(C(F)(F)F)n2)cc1 (stereo not shown) [Compound I-03, 2-[6-(4-methylsulfanylphenoxy)-2-(trifluoromethyl)-3-pyridyl]-1-(1,2,4-triazol-1-yl)propan-2-ol]
- Efficacy in % (Septoria tritici [2]): 93%
- Colletotrichum lindemuthianum ED50 value in ppm [3]: 0.38 ppm
- Efficacy in % (Septoria tritici [4]): 78%
- Efficacy in % (Botrytis cinerea): 90%
- Efficacy in % (Sphaerotheca fuliginea; rate of application 10 ppm): 78%
- Efficacy in % (Sphaerotheca fuliginea; rate of application 100 ppm): 100%
- chromatographic logP ([1]; compounds of formula (I)): 2.74
- Fusarium culmorum ED50 value in ppm (Fusarium culmorum): 0.83 ppm
- Pyricularia oryzae ED50 value in ppm (Pyricularia oryzae): 1.7 ppm
- Efficacy in % (Septoria tritici [5]): 71%
- Efficacy in % (Puccinia recondita; rate of application 100 ppm): 65%
- Efficacy in % (Puccinia recondita; rate of application 500 ppm): 88%

SMILES: CSc1ccc(Oc2ccc(C(C)=O)c(C(F)(F)F)n2)cc1 [Compound V-02, 1-[6-(4-methylsulfanylphenoxy)-2-(trifluoromethyl)-3-pyridyl]ethanone]
- chromatographic logP ([1]; compounds of formula (V)): 3.7

SMILES: C#Cc1ccc(Oc2ccc(C(=O)Cn3cncn3)c(C(F)(F)F)n2)cc1 [VII-04, 1-[6-(4-ethynylphenoxy)-2-(trifluoromethyl)-3-pyridyl]-2-(1,2,4-triazol-1-yl)ethanone]
- chromatographic logP ([1]; compounds of formula (VII)): 2.63

SMILES: O=Cc1ccc(Oc2ccc(C(=O)Cn3cncn3)c(C(F)(F)F)n2)cc1 [VII-01, 4-[[5-[2-(1,2,4-triazol-1-yl)acetyl]-6-(trifluoromethyl)-2-pyridyl]oxy]benzaldehyde]
- chromatographic logP ([1]; compounds of formula (VII)): 2.12
